Among the data in PMC9484358 (Archives of Pharmacal Research, 2022) are IC50 and inhibition values, retold here.

In this assay the test system is SARS-CoV-2 spike pseudovirus. Nature of the assay: organism not typed. It counts as cell-based.

The term IC50 denotes the concentration that inhibits the measured activity by half. The term inhibition denotes how much of the control response was suppressed.

With `Cc1cc(-c2ccc(/N=N/c3ccc4c(S(=O)(=O)O)cc(S(=O)(=O)O)c(N)c4c3O)c(C)c2)ccc1/N=N/c1ccc2c(S(=O)(=O)O)cc(S(=O)(=O)O)c(N)c2c1O` [Evans blue], for the setting “read-out: IC50 value”, the 50% inhibitory concentration (IC50) came out at 26.9 µM.
Take `CC1(C)[C@@H](O[C@H]2O[C@H](C(=O)O)[C@@H](O)[C@H](O)[C@H]2O[C@@H]2O[C@H](C(=O)O)[C@@H](O)[C@H](O)[C@H]2O)CC[C@]2(C)[C@H]3C(=O)C=C4[C@@H]5C[C@@](C)(C(=O)O)CC[C@]5(C)CC[C@@]4(C)[C@]3(C)CC[C@@H]12` [Glycyrrhizic acid]: under “read-out: Inhibition rate (%), 50 µM”, the inhibition at 50 µM was found to be 4.01 ± 7.03%. In addition, for the setting “read-out: Inhibition rate (%), 100 µM”, the inhibition at 100 µM was 11.2 ± 6.96%.
